Data as given in PMC12406256, “Food Additives Inhibit Intestinal Drug Transporters but Have Limited Effect on In Vitro Drug Permeability” (Molecular Pharmaceutics, 2025).
Several values for one entry are separate records, joined by “and”; a condition that tells them apart may be missing. Identical values can stand only once. Like-named read-outs stand apart in the source and are kept apart here.

Assays:
[1] = test system: Caco-2 cells; experiment: in vitro
Description: Caco-2 cells were cultured on 12-well Transwell polycarbonate membrane inserts with a 0.4 μm pore size (Corning Incorporated, Kennebunk, ME) at 37 °C and 5% CO2 for 21–24 days prior to the experiment as described in Hubatsch et al. The culture medium (DMEM, 10% FBS, 1% MEM nonessential amino acids, 100 U/mL penicillin–streptomycin) was changed every second day. Transepithelial electrical resistance (TEER) was measured before and after the permeability assay with a Millicell-ERS electrode (Millipore, Bedford, MA) attached to an epithelial volt ohm meter (EVOM, World Precision Instruments, Sarasota, FL). The permeability assay was performed according to a previously published protocol. […] Sulfasalazine is a substrate of BCRP and OATP2B1. , The DMSO concentration was 0.45–1.5%. Before the experiment, inserts were washed and preincubated in the transport buffer for 20 min shaking at 37 °C. Sulfasalazine and LY permeability was measured in the apical to basolateral direction at five time points (20, 40, 60, 90, and 120 min) and, additionally, in the basolateral to apical direction to calculate the efflux ratio. […] […] LY (250 μM) was added on the donor side of all inserts to measure the integrity of the cell monolayer. Before analysis, samples were centrifuged at 2755g for 30 min, and donor solution and mass balance samples were diluted 1:100. LY fluorescence was measured with a Varioskan LUX microplate reader (Thermo Fisher Scientific) at 430 nm excitation and 538 nm emission. Sulfasalazine was analyzed with ultra-performance liquid chromatography (UPLC) using a Syncronis C18 column (1.7 μm particle size, 50 × 2.1 mm + 0.2 μm Waters online filter) (Thermo Fisher Scientific) coupled with Waters Acquity UPLC interfaced with a PDA detector both controlled by the Waters Empower software version 3. The UPLC was operated in gradient mode at 354 nm. Solvents were 0.015 M phosphate buffer pH 2 (A), acetonitrile (B), 1:1 acetonitrile/methanol (strong needle wash), and 20% acetonitrile (weak needle wash). Column temperature was 30 °C, injection volume was 10 μL, retention time was 1.46 min, and flow rate was 0.5 mL/min. The gradient was 25% B → 70% B (0–3 min), 70% B → 25% B (3.00–3.01 min), and 25% B (3.01–4 min). The data were collected for the first 180 s of each UPLC run.
In the Caco-2 permeability assay, the apparent permeability (P app) of sulfasalazine was calculated using the following equation: Papp=(dQ/dt)(1/A×C0) where dQ/dt is the rate of permeation across the cells (nmol/min), A is the surface area of the filter (1.12 cm^2), and C 0 is the initial concentration in the donor chamber (μM). The efflux ratio of sulfasalazine was calculated by dividing the P app in the basolateral to the apical direction by the P app in the apical to basolateral direction. The TEER for each cell insert was calculated before and after the experiment by multiplying the mean resistance of three measurements by the surface area of the filter (1.12 cm^2). Mass balance was calculated by dividing the […]. All experiments were done in triplicate wells, and the IC50 and Caco-2 permeability assays were repeated three times.

[2] = target: T1, P-gp (Homo sapiens, UniProt P08183); experiment: Vesicular transport assay, P-gp (N-methyl-quinidine substrate); conditions: food additive 50 μM; N-methyl-quinidine 2 μM; n = 1
Description: (§1) Transport inhibition by 22 food additives was tested with Spodoptera frugiperda (Sf9) derived crude membrane vesicles expressing BCRP, MRP2, or P-gp produced in-house. […] Vesicles (50 μg total protein/well) were diluted in an assay buffer (40 mM MOPS–Tris pH 7.0, 60 mM KCl, and 6 mM MgCl2) with the substrate, and food additives (final concentration of 50 μM) in DMSO were added to the mixture. After preincubation, either the assay buffer or Mg-ATP solution (final concentration 4 mM) was added to the plate to start the reaction. The plate was incubated at 37 °C, and the reaction was stopped with an ice-cold washing mixture (40 mM MOPS-Tris pH 7.0 and 70 mM KCl). Samples were moved to a MultiScreenHTS-FB Plate Glass fiber 1.0 μm/0.65 μm Durapore filter plate (Millipore, USA), and the wells were washed five times with the ice-cold washing mixture. For BCRP and MRP2, the fluorescent substrate was eluted from the filters with 100 μL 0.1 M NaOH. For LY samples, an equal volume of 0.1 M HCl was added to neutralize the samples before fluorescence measurement. The amount of the substrate accumulated into the vesicles was measured by fluorescent detection using a Varioskan LUX microplate reader (Thermo Fisher Scientific, Finland) (Table ). The accumulation into the P-gp vesicles was measured with high-performance liquid chromatography (HPLC) (Agilent 110 series, Agilent Technologies, USA) after lysis and elution of the vesicle contents with 100 μL 3:1 methanol/water + 0.1% formic acid. The column used was a Poroshell 120 EC-C18 with a size of 4.6 × 100 mm and 2.7 μm particle size. Eluent A was 0.1% formic acid, and eluent B was acetonitrile. The flow rate of eluent was 1 mL/min, and the injection volume of samples was 10 μL. […] The retention time for NMQ was around 2.5 min.
(§2) For the efflux transporters, the relative transport was calculated as relativetransport(%ofcontrol)=transportinh,ATP−transportinh,noATP/transportDMSO,ATP−transportDMSO,noATP×100% where transportinh,ATP and transportinh,no ATP are the transport rates in the presence of food additives with or without ATP, respectively, and transportDMSO,ATP and transportDMSO,no ATP are the corresponding transport rates in the presence of the vehicle (DMSO) with or without ATP.
(§3) The half-maximal inhibitory concentrations (IC50) were calculated with GraphPad Prism version 9.0.2 (GraphPad Software, San Diego, CA) using nonlinear regression that fits the data to a four-parameter dose–response curve: relativetransport=minimum+maximum−minimum/1+([I]/IC50)^h where minimum and maximum describe the plateaus of minimal and maximal relative transport (%), [I] is the concentration of inhibitor, and h is the Hill slope, which describes the steepness of the slope.

[3] = target: T2, BCRP (Homo sapiens, UniProt Q9UNQ0); experiment: Vesicular transport assay, BCRP (Lucifer yellow substrate); format: biochemical; parameters: made in house; host or cells: Spodoptera frugiperda Sf9 cells, crude membrane vesicles; conditions: for inhibition of BCRP substrate accumulation: n = 1
T2 sequence (Q9UNQ0 1-655): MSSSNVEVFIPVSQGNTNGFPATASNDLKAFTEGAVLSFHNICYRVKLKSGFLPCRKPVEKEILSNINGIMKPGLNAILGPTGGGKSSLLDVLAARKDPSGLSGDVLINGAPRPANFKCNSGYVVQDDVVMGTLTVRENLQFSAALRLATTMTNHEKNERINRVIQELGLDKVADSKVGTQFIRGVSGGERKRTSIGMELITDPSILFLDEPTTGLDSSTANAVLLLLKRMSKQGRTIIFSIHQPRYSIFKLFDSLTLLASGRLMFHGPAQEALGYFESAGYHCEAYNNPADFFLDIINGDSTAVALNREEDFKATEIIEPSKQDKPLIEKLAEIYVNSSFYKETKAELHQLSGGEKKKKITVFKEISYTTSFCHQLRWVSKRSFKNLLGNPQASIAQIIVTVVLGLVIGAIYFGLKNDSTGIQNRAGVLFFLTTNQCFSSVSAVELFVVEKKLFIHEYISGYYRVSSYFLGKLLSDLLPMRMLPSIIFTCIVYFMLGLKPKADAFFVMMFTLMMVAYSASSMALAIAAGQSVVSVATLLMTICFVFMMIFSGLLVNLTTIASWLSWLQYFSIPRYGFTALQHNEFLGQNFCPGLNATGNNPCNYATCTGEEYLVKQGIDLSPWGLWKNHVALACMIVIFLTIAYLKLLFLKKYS
Description: as §1, §2, §3

[4] = target: T3, OATP2B1 (Homo sapiens, UniProt O94956); experiment: HEK293 uptake assay, OATP2B1 (5-carboxyfluorescein substrate); format: cell-based; conditions: food additive 50 μM; 5-carboxyfluorescein 2 μM; HEK293 cells; n = 1
T3 construct: expressed in transfected cells; host or cells: HEK293 cells (ATCC) transduced with recombinant OATP2B1 baculovirus
T3 sequence (O94956 1-709): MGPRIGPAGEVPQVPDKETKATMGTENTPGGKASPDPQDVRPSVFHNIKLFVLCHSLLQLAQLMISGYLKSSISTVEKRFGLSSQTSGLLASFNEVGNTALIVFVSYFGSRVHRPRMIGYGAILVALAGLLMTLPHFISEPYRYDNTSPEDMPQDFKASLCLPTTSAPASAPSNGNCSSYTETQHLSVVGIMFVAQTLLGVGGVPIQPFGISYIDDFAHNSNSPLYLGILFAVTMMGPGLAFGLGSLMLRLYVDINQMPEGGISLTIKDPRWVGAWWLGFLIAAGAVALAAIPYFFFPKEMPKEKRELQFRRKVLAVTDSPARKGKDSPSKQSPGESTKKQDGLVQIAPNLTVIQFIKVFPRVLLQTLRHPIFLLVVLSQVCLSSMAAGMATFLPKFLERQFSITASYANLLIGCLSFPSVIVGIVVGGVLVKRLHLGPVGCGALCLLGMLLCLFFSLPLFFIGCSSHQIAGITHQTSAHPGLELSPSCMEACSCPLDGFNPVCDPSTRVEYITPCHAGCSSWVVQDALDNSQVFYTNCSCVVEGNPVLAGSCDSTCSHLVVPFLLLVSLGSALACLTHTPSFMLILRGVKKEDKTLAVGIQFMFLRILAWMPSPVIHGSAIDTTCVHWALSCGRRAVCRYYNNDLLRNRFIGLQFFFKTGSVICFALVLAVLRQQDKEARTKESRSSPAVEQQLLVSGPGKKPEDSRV
Description: The inhibition of OATP2B1 was studied using a HEK293 cell-based uptake assay. HEK293 cells were cultured in DMEM supplemented with 10% FBS at 37 °C and 5% CO2 and seeded at 22,500 cells/well on 96-well plates coated with 0.1 mg/mL poly-D-lysine. After 24 h, the medium was replaced with a transduction mix (DMEM with 10% FBS, 5 mM sodium butyrate, and recombinant OATP2B1 or enhanced yellow fluorescent protein [eYFP, negative control] baculoviruses). The baculoviruses were produced as previously described. The uptake assay was performed after approximately 48 h. […] Test solutions also contained the substrate. Cells were washed with warm transport buffer and preincubated at 37 °C. Preincubation solutions were replaced with test solutions and incubated at 37 °C with shaking at 250 rpm. Transport was terminated by aspirating the test solution and washing the wells with an ice-cold transport buffer (150 μL) three times. Wells were left to dry, and cells were lysed with 0.1 M NaOH. […] Total protein concentration was measured from six random wells with a Pierce Coomassie (Bradford) Assay kit (Thermo Fisher Scientific) to ensure a similar protein concentration in the OATP2B1 and eYFP wells.

[5] = target: T3, OATP2B1; conditions: cited from earlier work
[6] = target: T2, BCRP; conditions: cited from earlier work
[7] = target: T1, P-gp; parameters: made in house; host or cells: Spodoptera frugiperda Sf9 cells, crude membrane vesicles; conditions: ref Kulkarni et al.; cited from earlier work
[8] = food additive 50 μM, Lucifer yellow 50 μM

T1 sequence (P08183 whole entry): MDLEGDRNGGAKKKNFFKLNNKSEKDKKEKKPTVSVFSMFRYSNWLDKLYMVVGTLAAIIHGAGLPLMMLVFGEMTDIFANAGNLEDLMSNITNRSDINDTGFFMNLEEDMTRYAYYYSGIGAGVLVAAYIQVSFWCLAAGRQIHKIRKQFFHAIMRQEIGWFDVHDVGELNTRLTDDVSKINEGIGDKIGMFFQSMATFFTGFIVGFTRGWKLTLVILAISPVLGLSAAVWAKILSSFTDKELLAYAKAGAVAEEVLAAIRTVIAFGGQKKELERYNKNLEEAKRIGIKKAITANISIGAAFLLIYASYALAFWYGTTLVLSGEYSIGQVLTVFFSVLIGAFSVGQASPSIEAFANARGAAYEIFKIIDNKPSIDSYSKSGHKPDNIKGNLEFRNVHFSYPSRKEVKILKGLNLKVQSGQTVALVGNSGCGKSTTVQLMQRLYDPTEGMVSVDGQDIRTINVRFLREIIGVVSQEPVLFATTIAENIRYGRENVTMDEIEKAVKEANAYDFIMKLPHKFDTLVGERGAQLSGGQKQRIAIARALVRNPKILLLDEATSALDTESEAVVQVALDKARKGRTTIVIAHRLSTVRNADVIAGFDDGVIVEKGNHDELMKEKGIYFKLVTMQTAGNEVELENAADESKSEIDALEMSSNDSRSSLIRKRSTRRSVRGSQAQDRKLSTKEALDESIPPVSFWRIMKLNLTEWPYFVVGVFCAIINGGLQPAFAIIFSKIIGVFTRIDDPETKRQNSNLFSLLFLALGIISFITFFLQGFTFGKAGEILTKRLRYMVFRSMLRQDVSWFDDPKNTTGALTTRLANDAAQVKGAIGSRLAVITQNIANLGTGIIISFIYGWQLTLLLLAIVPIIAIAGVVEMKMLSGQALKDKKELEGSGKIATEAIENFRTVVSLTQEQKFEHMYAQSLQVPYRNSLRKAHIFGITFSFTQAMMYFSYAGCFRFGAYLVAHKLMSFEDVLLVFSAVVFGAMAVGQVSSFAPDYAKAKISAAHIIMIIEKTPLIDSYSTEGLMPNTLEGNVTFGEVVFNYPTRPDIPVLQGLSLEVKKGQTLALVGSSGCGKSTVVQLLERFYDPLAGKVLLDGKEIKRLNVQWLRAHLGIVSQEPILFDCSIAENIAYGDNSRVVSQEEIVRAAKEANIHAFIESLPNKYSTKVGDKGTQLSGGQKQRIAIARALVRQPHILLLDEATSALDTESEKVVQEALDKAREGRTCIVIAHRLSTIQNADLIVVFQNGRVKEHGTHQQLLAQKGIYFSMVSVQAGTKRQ

COc1ccc2c3c([nH]c2c1)[C@H](CC(C)C)N1C(=O)[C@H](CCC(=O)OC(C)(C)C)NC(=O)[C@@H]1C3 [Ko-143, reference compound]
apical to basolateral P app of sulfasalazine with control inhibitor ([1]; Ko-143 10 μM on apical and basolateral sides, sulfasalazine 500 μM): ~0.6 × 10^–6 cm/s

OC[C@@H](O)[C@@H](O[C@H]1O[C@H](CO)[C@@H](O)[C@H](O)[C@H]1O)[C@H](O)[C@@H](O)CO [maltitol]
inhibition of P-gp substrate accumulation [2]: None

OC[C@@H](O)[C@H](O)[C@@H](O)CO [xylitol]
inhibition of P-gp substrate accumulation [2]: None

OC[C@@H](O)[C@@H](O)[C@H](O)[C@H](O)CO [mannitol]
inhibition of P-gp substrate accumulation [2]: None

CCCCCCCCCCCCOC(=O)c1cc(O)c(O)c(O)c1 [dodecyl gallate]
IC50 ([3]; Lucifer yellow 50 μM, membrane vesicles, n = 3, read-out: IC50 (95% CI), BCRP): 22.5 µM
inhibition at 50 μM ([3]; Sf9-derived crude membrane vesicles expressing BCRP, pH 7, probe Lucifer yellow 50 μM, food additive 50 μM, n = 1, read-out: inhibition of BCRP substrate accumulation): ≥ 50%

OC[C@@H](O)[C@@H](O[C@@H]1O[C@H](CO)[C@H](O)[C@H](O)[C@H]1O)[C@H](O)[C@@H](O)CO [lactitol]
inhibition of P-gp substrate accumulation [2]: None

OC[C@@H](O)[C@@H](O)CO [erythritol]
inhibition of P-gp substrate accumulation [2]: None

O=C([O-])C1=NN(c2ccc(S(=O)(=O)[O-])cc2)C(=O)C1N=Nc1ccc(S(=O)(=O)[O-])cc1.[Na+].[Na+].[Na+] (stereo not shown) [tartrazine]
sulfasalazine P app fold change ([1]; food additive 200 μM on both sides of the cell monolayer): ≤ 2

OC[C@@H](O)[C@@H](O)[C@H](O)[C@@H](O)CO [sorbitol]
inhibition of P-gp substrate accumulation [2]: None

CC1=C(/C=C/C(C)=C/C=C/C(C)=C/C=C/C=C(C)/C=C/C=C(\C)C=O)C(C)(C)CCC1 [beta-apo-8’-carotenal]
inhibition of OATP2B1-mediated uptake [4]: did not inhibit these transporters as markedly as beta-carotene
inhibition of P-gp substrate accumulation [2]: did not inhibit these transporters as markedly as beta-carotene
inhibition of BCRP substrate accumulation [3, 8]: did not inhibit these transporters as markedly as beta-carotene

CCCOC(=O)c1cc(O)c(O)c(O)c1 [propyl gallate]
inhibition of P-gp substrate accumulation [2]: None

O=S(=O)([O-])c1ccc(N=Nc2c(O)ccc3cc(S(=O)(=O)[O-])ccc23)cc1.[Na+].[Na+] [sunset yellow FCF]
effect on sulfasalazine permeability (P app) ([1]; Caco-2): None of the selected food additives showed any effect
IC50 ([5]; pH 5.5, previously characterized inhibitors, ref previous studies, read-out: IC50, OATP2B1, pH 5.5): 20.3 µM
Ki ([5]; previously characterized inhibitors, ref previous studies, read-out: K i, OATP2B1): 68.4 µM
IC50 ([6]; read-out: IC50 (95% CI), BCRP, previously characterized inhibitors, ref previous studies): 10.6 µM and 14.1 µM

COc1ccc(O)c(C(C)(C)C)c1 [butylated hydroxyanisole]
inhibition of OATP2B1-mediated uptake [4]: ≤ 50%
OATP2B1 inhibition ([5]; ref Kulkarni et al.): significant inhibitor
IC50 ([5]; ref Kulkarni et al., read-out: IC50, OATP2B1): > 50 µM
IC50 ([6]; read-out: IC50, BCRP, ref Kulkarni et al.): > 50 µM
BCRP inhibition ([6]; ref Kulkarni et al.): significant inhibitor
inhibition of P-gp substrate accumulation [2]: ≤ 50%
inhibition of BCRP substrate accumulation [3, 8]: ≤ 50%
IC50 [7]: > 50 µM
P-gp inhibition [7]: significant inhibitor

O=C1O[C@H]([C@@H](O)CO)C(O)=C1O [ascorbic acid]
inhibition of P-gp substrate accumulation [2]: None
